Laboratory results: patent US8969303B2, “Tocotrienol esters” (First Tech International Limited, priority 2010, dated 2015)

Tests used:
[1] = test system: +SA mammary epithelial cells; test: Antiproliferative MTT assay on +SA mammary epithelial cells; format: cell-based, mouse; details: malignant mice +SA mammary cells, 24 hour treatment, MTT
Source text: +SA mammary epithelial cell lines were serially passaged at subconfluent cell density. The +SA cell line was derived from an adenocarcinoma that developed spontaneously in a BALB/c female mouse. That cell line is discussed in more detail in Anderson, L. W., Danielson, K. G., Hosick, H. L. Eur. J. Cancer Clin. Oncol. 1981, 17, 1001-1008, Danielson, K G., Anderson, L. W., Hosick, H. L. Cancer Res. 1980, 40, 1812-1819.31, and Anderson, L. W., Danielson, K. G., Hosick, H. L. In Vitro. 1979, 15, 841-843. Cell culture conditions were similar to those described in detail in Shah, S. J., Gapor, A., Sylvester, P. W. Nutr. Cancer. 2003, 45, 236-246, Shah, S. J., Sylvester, P. W. Biochem. Cell. Biol. 2005, 83, 86-95, Wali, V. B., Sylvester, P. W. Lipids, 2007, 42, 1113-1123, and Wali, V. B., Bachawal, S. V., Sylvester, P. W. Exp. Biol. Med. (Maywood) 2009, 234, 639-650. Briefly, +SA cells were maintained in serum-free defined medium consisting of Dulbecco's modified Eagle's medium (DMEM)/F12 containing 5 mg/ml bovine serum albumin (BSA), […], 100 U/ml soybean trypsin inhibitor, 100 U/ml penicillin, 0.1 mg/ml streptomycin, […], and 10 ng/ml epidermal growth factor. For subculturing, cells were rinsed twice with sterile Ca^2+ and Mg^2+-free phosphate buffered saline (PBS) and incubated in 0.05% trypsin containing 0.025% EDTA in PBS for 5 minutes at 37° C. The released cells were centrifuged, resuspended in serum-free defined media and counted using a hemocytometer. A stock solution of the Compounds was prepared in DMSO. Once dissolved, this solution was added to a small volume of sterile 10% BSA in water and incubated overnight at 37° C. This solution conjugated to BSA was used to prepare various concentrations (0-40 μM) of tocotrienol analogs. DMSO was added to all treatment media such that the final DMSO concentration was the same in all treatment groups within a given experiment and was always less than 0.1%. For cytotoxicity studies, cells were seeded at a density of 5×10^4 cells/well (6 wells/group) in 24-well culture plates and allowed to grow in serum-free control defined media. After a 3 day incubation period (approximately 70% confluency), cells were divided equally into various treatment groups and exposed to their respective treatments for a 24 hour incubation period. Following the 24 hour treatment period, cell viability was measured using the MTT assay. All materials were purchased from Sigma Chemical Company (St. Louis, Mo.) unless otherwise stated.
+SA mammary epithelial cell viable number was determined by the 3-(4,5-dimethylthiazol-2-yl)-2,5-diphenyl tetrazolium bromide (MTT) colorimetric assay. On the day of assay, treatment medium was replaced with fresh growth medium containing 0.42 mg/ml MTT, and the cells in 24-well plates were incubated at 37° C. for 4 hours. Afterward, the medium was removed, and the MTT crystals were dissolved in isopropyl alcohol (1 ml/well). The optical density of each sample was read at 570 nm on a microplate reader (SpectraCount, Packard BioScience Company), against a blank prepared from cell-free cultures. The number of cells/well was calculated against a standard curve prepared by plating various concentrations of cells, as determined by hemocytometer, at the start of each experiment.
Differences among the various treatment groups in +SA cell cytotoxic studies were determined by analysis of variance (ANOVA) followed by Dunnett's t-test. The difference of P<0.05 was considered to be statistically significant as compared with vehicle-treated controls. Linear regression analysis of treatment effects on viable cell number in growth and cytotoxicity studies was used to determine the 50% growth inhibition concentration (IC50) for individual treatments.

[2] = Water solubility in phosphate buffer; format: physicochemical; details: phosphate buffer pH 7.4, 25° C.
Procedure: About 5.6 mg of each of α-tocotrienol and Compound 6 were added to 3 mL of phosphate buffer (pH 7.4) in amber vials. Tested solutions were maintained shaking under at 25° C. for 24 h in a constant-temperature water bath. Each solution was then centrifuged at 5,000 rpm for 10 min before collecting samples from the clear supernatant at 0, 1, 2, 4, 6, and 24 h. Each compound concentration in the aspirates was determined by HPLC. […] The solubility of α-tocotrienol maleate (Compound 6) was nearly 1000 fold that of its parent α-tocotrienol.
A Shimadzu HPLC system (Columbia, Md.) was used for quantification of α-tocotrienol and Compound 6. This system is composed of SIL 20-AHT autosampler, SPD-20A UV/VIS detector, and LC-20AB pump connected to a Dgu-20A3 degasser. Data acquisition was achieved by LC Solution software version 1.22 SP1 Shimadzu. The following chromatographic conditions were used: […] (250×4.6 mm id; Phenomenex, Torrance, Calif.), flow rate was adjusted to 1.0 mL/min, and λ was set at 295 nm. For α-tocotrienol solubility and stability studies, an isocratic elution with MeOH-EtOH—CH3CN (40:30:30, v/v/v) as mobile phase for 10 min. α-tocotrienol was eluted at 6.7 min. […] Each compound was quantified using its calibration curve for compounds peak area versus its concentration.

[3] = Stability in phosphate buffer; format: physicochemical; details: 24 h, 500 μg/mL, pH 7.4
Procedure: The stability of each of α-tocotrienol and Compound 6 was studied at 37° C. in phosphate buffer (pH 7.4). In amber vials, 500 μg/mL of each compound were dissolved in the buffer and the solution was incubated at 37° C. At interval times (0, 0.5, 1, 2, 4, 6, and 24 h), 50 μL it samples were collected and equal volumes of methanol were added to each sample followed by HPLC analysis.
(§1) A Shimadzu HPLC system (Columbia, Md.) was used for quantification of α-tocotrienol and Compound 6. This system is composed of SIL 20-AHT autosampler, SPD-20A UV/VIS detector, and LC-20AB pump connected to a Dgu-20A3 degasser. Data acquisition was achieved by LC Solution software version 1.22 SP1 Shimadzu. The following chromatographic conditions were used: […] (250×4.6 mm id; Phenomenex, Torrance, Calif.), flow rate was adjusted to 1.0 mL/min, and λ was set at 295 nm. For α-tocotrienol solubility and stability studies, an isocratic elution with MeOH-EtOH—CH3CN (40:30:30, v/v/v) as mobile phase for 10 min. α-tocotrienol was eluted at 6.7 min. For the simultaneous separation of α-tocotrienol and Compound 6 the following gradient elution was also used starting with H2O— MeOH—N(Et)3 (10:90:0.05, v/v/v) for 5 min, followed by isocratic MeOH—N(Et)3 (100:0.05, v/v) for another 10 min. The retention times were 4 and 14.1 for Compound 6 and α-tocotrienol, respectively. Standard curves for α-tocotrienol and Compound 6 in MeOH were prepared in the range of 0.4-50 μg/mL and 1-1000 μg/mL, respectively. Each compound was quantified using its calibration curve for compounds peak area versus its concentration.

Stability in rat plasma = format: in vitro ADME; details: 37° C.
Procedure: The stability of each of α-tocotrienol and Compound 6 was studied at 37° C. in rat plasma. In amber vials, 50 μg/mL of each Compound were dissolved in the plasma. The solution was incubated at 37° C., and at interval times (0, 0.5, 1, 2, 4, 6, and 24 h), 50 μL samples were taken and mixed with 100 μL of methanol followed by centrifugation at 14,000 rpm for 10 min. Each supernatant was analyzed by HPLC. In rat plasma, Compound 6 concentration was 100% stable over the first 3 h. Its concentration then started to decrease at the […] to become 81% and 77% of the initial concentration, respectively. After 24 hours, only 43% of the initial concentration of Compound 6 was detectable. The slow rate of hydrolysis of Compound 6 compared to α-tocotrienol may bode well for expected enhanced metabolic stability.
as §1

In the case of CC(C)=CCC/C(C)=C/CC/C(C)=C/CC[C@]1(C)CCc2c(C)c(OC(=O)/C=C\C(=O)O)c(C)c(C)c2O1 [Compound 6, (Z)-4-oxo-4-((R)-2,5,7,8-tetramethyl-2-((3E,7E)-4,8,12-trimethyltrideca-3,7,11-trienyl)chroman-6-yloxy)but-2-enoic acid], the IC50 ([1]; Mus musculus, Epithelial cell, 24 h) is reported as 0.51 µM, the IC50 [1] is reported as 0.52 µM and the “solubility relative to parent α-tocotrienol” value [2] is reported as ~1000 fold. The “chemical stability relative to the zero time concentration” value [3] was 100%, the “% of the initial concentration in rat plasma” value (from here on “% of the initial concentration”) (Stability in rat plasma; 4th hour) was 81% and the “% of the initial concentration” value (Stability in rat plasma; 5th hour) was 77%. For the same compound, the “% of the initial concentration” value (Stability in rat plasma; after 24 hours) was 43% and the “concentration stable in rat plasma” value (Stability in rat plasma; over the first 3 h) was 100%.
